# Test results as given in patent US20230021483A1, “[…] […] METHOD AND CLASSIFICATION OF PHARMACEUTICAL COMPONENTS BY USING TRANSCRIPTOMES” (National Institutes of Biomedical Innovation, Health and …, priority 2016, published 2023).
# Tested on: adjuvant-associated biological themes in LV, SP, LN
# Outline: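 Per-mouse whole-organ transcriptomes; genes with eij/ei(c)>2.0 tested for theme enrichment via TargetMine (GO, KEGG, Reactome, others), Fisher's exact test, Holm-Bonferroni correction. Themes shared by all three mice kept at p<0.05, using the smallest p. Score per adjuvant-associated term = Σ−log(p) of matching themes.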
substance,measurement,setting,value
"K3: B class CpG ODN (ATCGACTCTCGAGCGTTCTC), TLR9 ligand (chemistry not given here)","tissue damage-associated annotations (cell death, wounding) in LNs","LN, i.d., fold change >2",did not induce cell death and wounding in LNs
same,"IFN alpha, GO annotation line 1 of 5","LV, ID",0
same,"IFN alpha, GO annotation line 2 of 5","LV, ID",0
same,IFN alpha: cellular response to interferon-alpha,"LV, ID",0
same,IFN alpha: positive regulation of interferon-alpha production,"LV, ID",0
same,IFN alpha: regulation of interferon-alpha production,"LV, ID",0
same,IFN beta: cellular response to interferon-beta,"LV, ID",0
same,IFN beta: interferon-beta production,"LV, ID",0
same,IFN beta: positive regulation of interferon-beta production,"LV, ID",0
same,IFN beta: regulation of interferon-beta production,"LV, ID",0
same,IFN beta: response to interferon-beta,"LV, ID",0
same,IFN gamma: cellular response to interferon-gamma,"LV, ID",0
same,IFN gamma: interferon-gamma production,"LV, ID",0
same,IFN gamma: regulation of interferon-gamma production,"LV, ID",0
same,IFN gamma: response to interferon-gamma,"LV, ID",0
same,"NF-kappa B signaling pathway, GO annotation line 1 of 4","LV, ID",6.19
same,"NF-kappa B signaling pathway, GO annotation line 2 of 4","LV, ID",0
same,"NF-kappa B signaling pathway, GO annotation line 3 of 4","LV, ID",0
same,"NF-kappa B signaling pathway, GO annotation line 4 of 4","LV, ID",0
same,TNF signaling pathway,"LV, ID",14.5
same,"adaptive immune response, GO annotation line 1 of 5","LV, ID",0
same,"adaptive immune response, GO annotation line 2 of 5","LV, ID",0
same,"adaptive immune response, GO annotation line 3 of 5","LV, ID",0
same,"adaptive immune response, GO annotation line 4 of 5","LV, ID",0
same,"adaptive immune response, GO annotation line 5 of 5","LV, ID",0
same,"apoptosis, GO annotation line 1 of 8","LV, ID",15.7
same,"apoptosis, GO annotation line 2 of 8","LV, ID",10.1
same,"apoptosis, GO annotation line 3 of 8","LV, ID",10.3
same,"apoptosis, GO annotation line 4 of 8","LV, ID",0
same,"apoptosis, GO annotation line 5 of 8","LV, ID",5.99
same,"apoptosis, GO annotation line 6 of 8","LV, ID",3.19
same,"apoptosis, GO annotation line 7 of 8","LV, ID",0
same,"apoptosis, GO annotation line 8 of 8","LV, ID",0
same,"cell death, GO annotation line 1 of 9","LV, ID",18.3
same,"cell death, GO annotation line 2 of 9","LV, ID",13.9
same,"cell death, GO annotation line 3 of 9","LV, ID",14.9
same,"cell death, GO annotation line 4 of 9","LV, ID",10.5
same,"cell death, GO annotation line 5 of 9","LV, ID",10.9
same,"cell death, GO annotation line 6 of 9","LV, ID",7.25
same,"cell death, GO annotation line 7 of 9","LV, ID",6.67
same,"cell death, GO annotation line 8 of 9","LV, ID",0
same,"cell death, GO annotation line 9 of 9","LV, ID",0
same,"chemokine, GO annotation line 1 of 4","LV, ID",0
same,"chemokine, GO annotation line 2 of 4","LV, ID",0
same,"chemokine, GO annotation line 3 of 4","LV, ID",0
same,"chemokine, GO annotation line 4 of 4","LV, ID",0
same,"chemotaxis, GO annotation line 1 of 11","LV, ID",0
same,"chemotaxis, GO annotation line 2 of 11","LV, ID",0
same,"chemotaxis, GO annotation line 3 of 11","LV, ID",0
same,"chemotaxis, GO annotation line 4 of 11","LV, ID",0
same,"chemotaxis, GO annotation line 5 of 11","LV, ID",0
same,"chemotaxis, GO annotation line 6 of 11","LV, ID",0
same,"chemotaxis, GO annotation line 7 of 11","LV, ID",0
same,"chemotaxis, GO annotation line 8 of 11","LV, ID",0
same,"chemotaxis, GO annotation line 9 of 11","LV, ID",0
same,"chemotaxis, GO annotation line 10 of 11","LV, ID",0
same,"chemotaxis, GO annotation line 11 of 11","LV, ID",0
same,"cytokine, GO annotation line 1 of 17","LV, ID",0
same,"cytokine, GO annotation line 2 of 17","LV, ID",0
same,"cytokine, GO annotation line 3 of 17","LV, ID",0
same,"cytokine, GO annotation line 4 of 17","LV, ID",0
same,"cytokine, GO annotation line 5 of 17","LV, ID",0
same,"cytokine, GO annotation line 6 of 17","LV, ID",0
same,"cytokine, GO annotation line 7 of 17","LV, ID",0
same,"cytokine, GO annotation line 8 of 17","LV, ID",0
same,"cytokine, GO annotation line 9 of 17","LV, ID",0
same,"cytokine, GO annotation line 10 of 17","LV, ID",0
same,"cytokine, GO annotation line 11 of 17","LV, ID",0
same,"cytokine, GO annotation line 12 of 17","LV, ID",0
same,"cytokine, GO annotation line 13 of 17","LV, ID",0
same,"cytokine, GO annotation line 14 of 17","LV, ID",0
same,"cytokine, GO annotation line 15 of 17","LV, ID",0
same,"cytokine, GO annotation line 16 of 17","LV, ID",0
same,"cytokine, GO annotation line 17 of 17","LV, ID",0
same,"defense response, GO annotation line 1 of 11","LV, ID",0
same,"defense response, GO annotation line 2 of 11","LV, ID",0
same,"defense response, GO annotation line 3 of 11","LV, ID",0
same,"defense response, GO annotation line 4 of 11","LV, ID",0
same,"defense response, GO annotation line 5 of 11","LV, ID",0
same,"defense response, GO annotation line 6 of 11","LV, ID",0
same,"defense response, GO annotation line 7 of 11","LV, ID",0
same,"defense response, GO annotation line 8 of 11","LV, ID",0
same,"defense response, GO annotation line 9 of 11","LV, ID",0
same,"defense response, GO annotation line 10 of 11","LV, ID",0
same,"defense response, GO annotation line 11 of 11","LV, ID",0
same,"immune response, GO annotation line 1 of 8","LV, ID",0
same,"immune response, GO annotation line 2 of 8","LV, ID",0
same,"immune response, GO annotation line 3 of 8","LV, ID",0
same,"immune response, GO annotation line 4 of 8","LV, ID",0
same,"immune response, GO annotation line 5 of 8","LV, ID",0
same,"immune response, GO annotation line 6 of 8","LV, ID",0
same,"immune response, GO annotation line 7 of 8","LV, ID",0
same,"immune response, GO annotation line 8 of 8","LV, ID",0
same,"inflammatory response, GO annotation line 1 of 5","LV, ID",0
same,"inflammatory response, GO annotation line 2 of 5","LV, ID",0
same,"inflammatory response, GO annotation line 3 of 5","LV, ID",0
same,"inflammatory response, GO annotation line 4 of 5","LV, ID",0
same,"inflammatory response, GO annotation line 5 of 5","LV, ID",0
same,"innate immune response, GO annotation line 1 of 6","LV, ID",0
same,"innate immune response, GO annotation line 2 of 6","LV, ID",0
same,"innate immune response, GO annotation line 3 of 6","LV, ID",0
same,"innate immune response, GO annotation line 4 of 6","LV, ID",0
same,"innate immune response, GO annotation line 5 of 6","LV, ID",0
same,"innate immune response, GO annotation line 6 of 6","LV, ID",0
same,interleukin-6: interleukin-6 production,"LV, ID",0
same,interleukin-6: positive regulation of interleukin-6 production,"LV, ID",0
same,interleukin-6: regulation of interleukin-6 production,"LV, ID",0
same,interleukin-12: interleukin-12 production,"LV, ID",0
same,interleukin-12: positive regulation of interleukin-12 production,"LV, ID",0
same,interleukin-12: regulation of interleukin-12 production,"LV, ID",0
same,"migration, GO annotation line 1 of 10","LV, ID",0
same,"migration, GO annotation line 2 of 10","LV, ID",0
same,"migration, GO annotation line 3 of 10","LV, ID",0
same,"migration, GO annotation line 4 of 10","LV, ID",0
same,"migration, GO annotation line 5 of 10","LV, ID",0
same,"migration, GO annotation line 6 of 10","LV, ID",0
same,"migration, GO annotation line 7 of 10","LV, ID",0
same,"migration, GO annotation line 8 of 10","LV, ID",0
same,"migration, GO annotation line 9 of 10","LV, ID",0
same,"migration, GO annotation line 10 of 10","LV, ID",0
same,"stress, GO annotation line 1 of 3","LV, ID",12.9
same,"stress, GO annotation line 2 of 3","LV, ID",0
same,"stress, GO annotation line 3 of 3","LV, ID",0
same,"wounding, GO annotation line 1 of 3","LV, ID",0
same,"wounding, GO annotation line 2 of 3","LV, ID",0
same,"wounding, GO annotation line 3 of 3","LV, ID",0
